Test results from patent US10501449B2 (priority 2018, dated 2019).

How the values were obtained:
hROMK (human Kir1.1) = hROMK (human Kir1.1) (Homo sapiens (Human), UniProt P48048); test: cell-based; conditions: CHO T-Rex hROMK stable cell line; thallium flux; 10-point concentration response curve; read-out: Human ROMK Th Flux IC50
hERG channels = hERG channels (Homo sapiens (Human), UniProt Q12809); test: hERG Manual Patch Clamp Assay; assay type: cell-based; conditions: human, HEK 293 cells stably expressing hERG channels, pH 7.4, 1 uM, read-out: hERG EP % Inh @ 1 uM
Chain of hERG channels (Q12809 whole entry): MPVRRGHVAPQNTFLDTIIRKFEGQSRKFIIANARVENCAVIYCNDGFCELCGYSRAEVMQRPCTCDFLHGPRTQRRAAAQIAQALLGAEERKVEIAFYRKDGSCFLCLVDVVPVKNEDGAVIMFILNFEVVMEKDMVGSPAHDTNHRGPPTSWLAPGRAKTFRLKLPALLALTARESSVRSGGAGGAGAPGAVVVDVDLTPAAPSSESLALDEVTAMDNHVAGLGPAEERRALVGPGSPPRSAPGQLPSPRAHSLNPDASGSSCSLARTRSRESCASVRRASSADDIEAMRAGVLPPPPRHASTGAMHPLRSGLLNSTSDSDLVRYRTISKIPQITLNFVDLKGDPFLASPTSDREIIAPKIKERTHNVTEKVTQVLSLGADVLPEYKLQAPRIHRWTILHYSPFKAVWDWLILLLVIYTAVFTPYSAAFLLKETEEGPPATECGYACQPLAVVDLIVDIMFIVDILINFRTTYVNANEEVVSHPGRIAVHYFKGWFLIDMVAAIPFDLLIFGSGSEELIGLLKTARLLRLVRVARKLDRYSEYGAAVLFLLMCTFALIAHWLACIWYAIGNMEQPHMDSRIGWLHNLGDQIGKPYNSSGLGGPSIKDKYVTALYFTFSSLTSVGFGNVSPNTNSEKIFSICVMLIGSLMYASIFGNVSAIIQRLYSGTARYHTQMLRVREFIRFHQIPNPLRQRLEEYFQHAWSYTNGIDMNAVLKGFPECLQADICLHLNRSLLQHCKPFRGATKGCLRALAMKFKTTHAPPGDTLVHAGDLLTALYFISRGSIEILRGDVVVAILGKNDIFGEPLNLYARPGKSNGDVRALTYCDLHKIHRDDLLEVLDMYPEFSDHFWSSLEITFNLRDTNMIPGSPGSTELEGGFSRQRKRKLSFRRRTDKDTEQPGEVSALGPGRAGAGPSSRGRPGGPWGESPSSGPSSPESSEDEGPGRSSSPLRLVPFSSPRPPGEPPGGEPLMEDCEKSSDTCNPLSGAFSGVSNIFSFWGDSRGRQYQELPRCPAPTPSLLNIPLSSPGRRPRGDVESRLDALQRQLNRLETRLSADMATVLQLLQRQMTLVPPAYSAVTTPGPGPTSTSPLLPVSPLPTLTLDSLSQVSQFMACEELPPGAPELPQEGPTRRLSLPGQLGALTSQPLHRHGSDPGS
Description: hERG electrophysiology assay: The experimental compounds were assessed for hERG activity on HEK 293 cells stably expressing hERG channels using patch clamp technique. Coverslips plated with hERG expressing cells were placed in the experimental chamber and were perfused with a solution composed of (in mM): 140 NaCl, 4 KCl, 1.8 CaCl2, 1 MgCl2, 10 Glucose, 10 HEPES (pH 7.4, NaOH) at room temperature. Borosilicate patch pipettes had tip resistances of 2-4 Mohms when filled with an internal solution containing: 130 KCl, 1 MgCl2, 1 CaCl2, 10 EGTA, 10 HEPES, 5 ATP-K2 (pH 7.2, KOH). The cells were clamped at −80 mV in whole cell configuration using an Axopatch 200B (Axon instruments, Union City, Calif.) patch clamp amplifier controlled by pClamp (Axon instruments) software. Upon formation of a gigaseal, the following voltage protocol was repeatedly (0.05 Hz) applied to record tail currents: depolarization step from −80 mV to +20 mV for 2 seconds followed by a hyperpolarization step to −65 mV (3 seconds) to elicit tail currents. Compounds were applied after stabilization of tail current. First, tail currents were recorded in presence of extracellular solution alone (control) and subsequently, in extracellular solution containing increasing compound concentrations. Each compound concentration was applied for 2-5 minutes. The percentage inhibition at each concentration was calculated as reduction in peak tail current with respect to the peak tail current recorded in the presence of control solution. Data analysis was performed in a custom made template. The percent inhibitions at different concentrations were plotted to obtain a concentration response curve, which was subsequently fitted with a four parameter equation to calculate hERG IC50 value.

Chain of hROMK (human Kir1.1) (P48048 whole entry): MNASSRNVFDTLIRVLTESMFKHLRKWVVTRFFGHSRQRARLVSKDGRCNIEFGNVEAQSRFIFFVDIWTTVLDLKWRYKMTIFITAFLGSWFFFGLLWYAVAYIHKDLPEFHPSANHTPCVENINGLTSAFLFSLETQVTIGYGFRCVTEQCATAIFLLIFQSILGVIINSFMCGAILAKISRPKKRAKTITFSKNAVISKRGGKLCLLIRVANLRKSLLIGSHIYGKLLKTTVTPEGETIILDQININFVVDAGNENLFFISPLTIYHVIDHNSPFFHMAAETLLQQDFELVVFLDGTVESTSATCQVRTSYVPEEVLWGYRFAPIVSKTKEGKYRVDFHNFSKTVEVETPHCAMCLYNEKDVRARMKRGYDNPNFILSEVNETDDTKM

SMILES	IC50 (hROMK (human Kir1.1)) [µM]	inhibition at 1 µM (hERG channels) [%]
Cc1cc(-n2cc(CN3CC[C@@H](O)[C@H](c4ccc5c(c4C)COC5=O)C3)n(C)c2=O)ncc1C#N [Example 250-I, 6-(4-(((3R,4R)-4-hydroxy-3-(4-methyl-1-oxo-1,3-dihydroisobenzofuran-5-yl)piperidin-1-yl)methyl)-3-methyl-2-oxo-2,3-dihydro-1H-imidazol-1-yl)-4-methylnicotinonitrile]	0.027	20
Cc1cc(-n2ncc(CN3CCN[C@H](c4ccc5c(c4C)COC5=O)C3)c2C)ncc1C#N [Example 146-I, (R)-4-methyl-6-(5-methyl-4-((3-(4-methyl-1-oxo-1,3-dihydroisobenzofuran-5-yl)piperazin-1-yl)methyl)-1H-pyrazol-1-yl)nicotinonitrile]	0.025	16
Cc1cc(-c2ncc(CN3CC[C@@H](O)[C@H](c4ccc5c(c4C)COC5=O)C3)s2)ncc1C#N [Example 125-I, 6-(5-(((3R,4R)-4-hydroxy-3-(4-methyl-1-oxo-1,3-dihydroisobenzofuran-5-yl)piperidin-1-yl)methyl)thiazol-2-yl)-4-methylnicotinonitrile]	0.03	8.3
Cc1cn(-c2ncc(CN3CCN[C@H](c4ccc5c(c4C)COC5=O)C3)cn2)nc1C#N [Example 243-I, (R)-4-methyl-1-(5-((3-(4-methyl-1-oxo-1,3-dihydroisobenzofuran-5-yl)piperazin-1-yl)methyl)pyrimidin-2-yl)-1H-pyrazole-3-carbonitrile]	0.013	9.8
Cc1c([C@@H]2CN(Cc3cnn(-c4cc(OC(C)C)c(C#N)cn4)c3)CCN2)ccc2c1COC2=O [Example 140-I, (R)-4-isopropoxy-6-(4-((3-(4-methyl-1-oxo-1,3-dihydroisobenzofuran-5-yl)piperazin-1-yl)methyl)-1H-pyrazol-1-yl)nicotinonitrile]	0.026	49
COc1c(CN2CCO[C@H](c3ccc4c(c3C)COC4=O)C2)cnn1-c1cc(C)c(C#N)cn1 [Example 26-I, (R)-6-(5-methoxy-4-((2-(4-methyl-1-oxo-1,3-dihydroisobenzofuran-5-yl)morpholino)methyl)-1H-pyrazol-1-yl)-4-methylnicotinonitrile]	0.069	20
Cc1cn(-c2ncc(CN3CCN[C@H](c4ccc5c(c4C)COC5=O)C3)cc2F)cn1 [Example 144-I, (R)-5-(4-((5-fluoro-6-(4-mehtyl-1H-imidazol-1-yl)pyridin-3-yl)methyl)piperazin-2-yl)-4-methylisobenzofuran-1(3H)-one]	0.024	7.8
COc1nn(-c2ncc(CN3CCN[C@H](c4ccc5c(c4C)COC5=O)C3)cn2)cc1C#N [Example 227-I, (R)-3-methoxy-1-(5-((3-(4-methyl-1-oxo-1,3-dihydroisobenzofuran-5-yl)piperazin-1-yl)methyl)pyrimidin-2-yl)-1H-pyrazole-4-carbonitrile]	0.028	18
Cc1c([C@@H]2CN(Cc3cnn(-c4cc(C#N)ccn4)c3)CCN2)ccc2c1COC2=O [Example 198-I, (R)-2-(4-((3-(4-methyl-1-oxo-1,3-dihydroisobenzofuran-5-yl)piperazin-1-yl)methyl)-1H-pyraozl-1-yl)isonicotinonitrile]	0.083	0
Cc1cc(-n2cc(CN3CC(F)CC(c4ccc5c(c4C)COC5=O)C3)nn2)ncc1C#N (single isomer, unassigned) [Example 203-I, 6-(4-((3-fluoro-5-(4-methyl-1-oxo-1,3-dihydroisobenzofuran-5-yl)piperidin-1-yl)methyl)-1H-1,2,3-triaozl-1-yl)-4-methylnicotinonitrile]	0.043	16
Cc1cc(N2CC(CN3CCN[C@H](c4ccc5c(c4C)COC5=O)C3)CC2=O)ncc1C#N (single isomer, unassigned) [Example 158-I]	0.036	20
Cc1cc(-n2cc(CN3CC(CO)NC(c4ccc5c(c4C)COC5=O)C3)nn2)ncc1C#N (single isomer, unassigned) [Example 88-III, 6-(4-((3-(hydroxymethyl)-5-(4-methyl-1-oxo-1,3-dihydroisobenzofur-an-5-yl)piperazin-1-yl)methyl)-1H-1,2,3-triazol-1-yl)-4-methylnicotinonitrile]	0.036	8.3
Cc1c([C@@H]2CN(Cc3cnc(-n4cnc(C#N)c4)nc3)CCN2)ccc2c1COC2=O [Example 215-I]	0.011	29
Cc1cc(-n2cc(CN3CC(O)CC(c4ccc5c(c4C)COC5=O)C3)cn2)ncc1C#N (single isomer, unassigned) [Example 199-IV, 6-(4-((3-hydroxy-5-(4-methyl-1-oxo-1,3-dihydroisobenzofuran-5-yl)piperidin-1-yl)methyl)-1H-pyrazol-1-yl)-4-methylnicotinonitrile]	0.016	22
Cc1cc(-n2cc(CN3CCO[C@H](c4ccc5c(c4C)COC5=O)C3)c(C)n2)ncc1C#N [Example 52-I, (R)-4-methyl-6-(3-methyl-4-((2-(4-methyl-1-oxo-1,3-dihydroisobenzo-furan-5-yl)morpholino)methyl)-1H-pyrazol-1-yl)nicotinonitrile]	0.0028	72
Cc1cc(-n2cc(CN3CCN[C@H](c4ccc5c(c4C)COC5=O)C3)c(C3CC3)n2)ncc1C#N [Example 237-I, (R)-6-(3-cyclopropyl-4-((3-(4-methyl-1-oxo-1,3-dihydroisobenzofuran-5-yl)piperazin-1-yl)methyl)-1H-pyrazol-1-yl)-4-methylnicotinonitrile]	0.069	37
Cc1cc(-c2cc(CN3C[C@@H](c4ccc5c(c4C)COC5=O)N[C@@H](C)C3)on2)ncc1C#N [Example 214-I, 4-methyl-6-(5-(((3S,5R)-3-methyl-5-(4-methyl-1-oxo-1,3-dihydroisobenzofuran-5-yl)piperazin-1-yl)methyl)isoxazol-3-yl)nicotinonitrile]	0.0066	22
Cc1c([C@@H]2CN(Cc3cnc(-n4cnc(C#N)n4)nc3)CCN2)ccc2c1COC2=O [Example 217-I, (R)-1-(5-((3-(4-methyl-1-oxo-1,3-dihydroisobenzofuran-5-yl)piperazin-1-yl)methyl)pyrimidin-2-yl)-1H-1,2,4-triazole-3-carbonitrile]	0.024	16
Cc1c([C@@H]2CN(Cc3cnc(-n4cc(C#N)c(C5CC5)n4)nc3)CCN2)ccc2c1COC2=O [Example 218-I, (R)-3-cyclopropyl-1-(5-((3-(4-methyl-1-oxo-1,3-dihydroisobenzofuran-5-yl)piperazin-1-yl)methyl)pyrimidin-2-yl)-1H-pyrazole-4-carbonitrile]	0.033	39
Cc1cc(-n2cc(CN3C[C@@H](c4ccc5c(c4C)COC5=O)OC3=O)cn2)ncc1C#N [Example 9-I, (R)-4-methyl-6-(4-((5-(4-methyl-1-oxo-1,3-dihydroisobenzofuran-5-yl)-2-oxooxazolidin-3-yl)methyl)-1H-pyrazol-1-yl)nicotinonitrile]	0.044	47
Cc1cc(-n2cc(CN3CCN[C@H](c4ccc5c(c4C)COC5=O)C3)c(C)n2)ncc1C#N [Example 145-I, (R)-4-methyl-6-(3-methyl-4-((3-(4-methyl-1-oxo-1,3-dihydroisobenzofuran-5-yl)piperazin-1-yl)methyl)-1H-pyrazol-1-yl)nicotinonitrile]	0.015	25
COc1cc(-c2ccc(CN3CCN[C@H](c4ccc5c(c4C)COC5=O)C3)c(OC)n2)ncc1C#N [Example 143-I, (R)-4,6′-dimethoxy-5′-((3-(4-methyl-1-oxo-1,3-dihydroisobenzofuran-5-yl)piperazin-1-yl)methyl)-[2,2′-bipyridine]-5-carbonitrile]	0.063	49
Cc1cc(-c2cc(CN3CC(c4ccc5c(c4C)COC5=O)NC(C)(C)C3)on2)ncc1C#N (single isomer, unassigned) [Example 268-I, 6-(5-((3,3-dimethyl-5-(4-methyl-1-oxo-1,3-dihydroisobenzofuran-5-yl)piperazin-1-yl)methyl)isoxazol-3-yl)-4-methylnicotinonitrile]	0.02	9
Cc1c([C@@H]2CN(Cc3cnn(-c4ccc(C#N)cc4)c3)CCO2)ccc2c1COC2=O [Example 40-I, (R)-4-(4-((2-(4-methyl-1-oxo-1,3-dihydroiso-benzofuran-5-yl)morpho-lino)methyl)-1H-pyrazol-1-yl)benzonitrile]	0.027	54
Cc1c([C@@H]2CN(Cc3cnc(-n4cnc(C#N)c4)s3)CCN2)ccc2c1COC2=O [Example 21-I, (R)-1-(5-((3-(4-methyl-1-oxo-1,3-dihydroisobenzofuran-5-yl)piperazin-1-yl)methyl)thiazol-2-yl)-1H-imidazole-4-carbonitrile]	0.093	8.5
COc1cc(-n2cnc(C)c2)ncc1CN1CCN[C@H](c2ccc3c(c2C)COC3=O)C1 [Example 149-I, (R)-5-(4-((4-methoxy-6-(4-methyl-1H-imidazol-1-yl)pyridin-3-yl)methyl)piperazin-2-yl)-4-methylisobenzofuran-1(3H)-one]	0.052	7.6
COc1cc(-n2cc(CN3CC[C@@H](O)[C@H](c4ccc5c(c4C)COC5=O)C3)cn2)ncc1C#N [Example 112-I, 6-(4-(((3R,4R)-4-hydroxy-3-(4-methyl-1-oxo-1,3-dihydroisobenzofur-an-5-yl)piperidin-1-yl)methyl)-1H-pyrazol-1-yl)-4-methoxynicotinonit-rile]	0.018	22
